Test results published in ChEMBL document CHEMBL6103622 (J Med Chem, 2025).
The source made the active and inactive calls. The rule behind the calls is not given here.

How the values were obtained:
[1] = system: BMDM; assay: Induction of repolarization of M2 like macrophage into M1 phenotype in female C57BL/6 mouse BMDM cells assessed as decrease in number of M2 macrophages by measuring reduction in CD206 expression at 10 to 100 nM stimulated with mouse IL4/IL-13 for 24 hrs followed by compound addition and measured after 24 hrs by immunofluorescence analysis; format: functional, cell-based; settings: dose 10-100 nM
[2] = Clearance in Sprague-Dawley rat at 1 mg/kg, iv; format: ADME, organism-based; settings: in vivo
[3] = Toxicity in C57BL/6 mouse model allografted with mouse MC38 cells assessed as body weight loss at 10 to 20 mg/kg, ip administered once daily for 14 days; format: organism-based; settings: in vivo, 336 h, dose 10-20 mg/kg, time 14 day
[4] = system: MC-38; assay: Antitumor activity against mouse MC38 cells allografted in C57BL/6 mouse model assessed as downregulation of Arg1 mRNA expression in tumor at 10 to 20 mg/kg, ip administered once daily for 14 days by qPCR analysis; format: functional, organism-based; settings: dose 10-20 mg/kg, time 14.0 day
[5] = molecular target: T1, Macrophage colony-stimulating factor 1 receptor (Mus musculus) (UniProt P09581); assay: Inhibition of CSF-1R signaling pathway activation in female C57BL/6 mouse BMDM cells assessed as reduction in CSF-1R phosphorylation preincubated with compounds for 4 hrs followed by M-CSF stimulation and measured after 30 mins by Western blot analysis; format: cell-based; settings: dose 10-100 nM, time 4.5 hrs
T1 sequence (whole entry): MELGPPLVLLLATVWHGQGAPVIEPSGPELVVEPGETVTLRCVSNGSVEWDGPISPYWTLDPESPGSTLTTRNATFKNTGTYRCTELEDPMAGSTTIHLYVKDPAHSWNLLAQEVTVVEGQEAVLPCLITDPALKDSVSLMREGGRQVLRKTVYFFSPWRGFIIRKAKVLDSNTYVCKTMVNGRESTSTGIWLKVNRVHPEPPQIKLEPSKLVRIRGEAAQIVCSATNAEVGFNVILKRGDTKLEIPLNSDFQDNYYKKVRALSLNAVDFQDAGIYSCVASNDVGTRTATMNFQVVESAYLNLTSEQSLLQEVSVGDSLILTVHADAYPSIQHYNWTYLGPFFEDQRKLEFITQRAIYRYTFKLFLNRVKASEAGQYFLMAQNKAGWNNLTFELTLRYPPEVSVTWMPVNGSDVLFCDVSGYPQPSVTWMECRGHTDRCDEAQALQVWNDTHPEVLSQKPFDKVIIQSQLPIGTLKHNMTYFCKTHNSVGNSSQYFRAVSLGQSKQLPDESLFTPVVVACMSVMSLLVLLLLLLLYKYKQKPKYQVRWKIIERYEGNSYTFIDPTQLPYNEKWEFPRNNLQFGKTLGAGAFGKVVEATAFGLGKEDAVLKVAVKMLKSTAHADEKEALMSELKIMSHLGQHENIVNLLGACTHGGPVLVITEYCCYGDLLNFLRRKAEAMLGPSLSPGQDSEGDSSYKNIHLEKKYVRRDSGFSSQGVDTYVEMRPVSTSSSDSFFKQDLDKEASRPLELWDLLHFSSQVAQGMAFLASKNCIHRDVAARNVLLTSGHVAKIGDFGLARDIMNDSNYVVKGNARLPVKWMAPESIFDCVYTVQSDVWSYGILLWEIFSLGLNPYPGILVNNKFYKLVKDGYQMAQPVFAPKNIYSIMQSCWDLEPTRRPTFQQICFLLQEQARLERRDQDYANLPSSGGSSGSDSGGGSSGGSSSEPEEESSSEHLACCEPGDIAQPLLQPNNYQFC

[6] = system: BMDM; assay: Induction of repolarization of M2 like macrophage into M1 phenotype in female C57BL/6 mouse BMDM cells assessed as decrease in Arg1 mRNA expression at 10 to 100 nM stimulated with mouse IL4/IL-13 for 24 hrs followed by compound addition and measured after 24 hrs by qPCR analysis; format: functional, cell-based; settings: dose 10-100 nM
[7] = Terminal half-life in Sprague-Dawley rat at 1 mg/kg, iv; format: ADME, organism-based; settings: in vivo, read-out: beta t1/2 (converted)
[8] = system: MC-38; assay: Antitumor activity against mouse MC38 cells allografted in C57BL/6 mouse model assessed as downregulation of Chil3l mRNA expression in tumor at 10 to 20 mg/kg, ip administered once daily for 14 days by qPCR analysis; format: functional, organism-based; settings: dose 10-20 mg/kg, time 14.0 day
[9] = system: MC-38; assay: Inhibition of cell proliferation in mouse MC38 cells cocultured with condition medium of M2 macrophages at 10 to 100 nM incubated for 20 hrs by CCK8 assay; format: functional, cell-based; settings: dose 10-100 nM
[10] = molecular target: T1, Macrophage colony-stimulating factor 1 receptor (Mus musculus); assay: Inhibition of CSF-1R signaling pathway activation in female C57BL/6 mouse BMDM cells assessed as reduction in STAT3 phosphorylation preincubated with compounds for 4 hrs followed by M-CSF stimulation and measured after 30 mins by Western blot analysis; format: cell-based; settings: dose 10-100 nM, time 4.5 hrs
[11] = system: MC-38; assay: Induction of apoptosis in mouse MC38 cells assessed as early apoptotic cells at 100 nM by Annexin V/PI staining based flow cytometric analysis (reference value: 1.91 %); format: functional
[12] = system: BMDM; assay: Induction of repolarization of M2 like macrophage into M1 phenotype in female C57BL/6 mouse BMDM cells assessed as increase in Il6 mRNA expression at 10 to 100 nM stimulated with mouse IL4/IL-13 for 24 hrs followed by compound addition and measured after 24 hrs by qPCR analysis; format: functional, cell-based; settings: dose 10-100 nM
[13] = system: BMDM; assay: Induction of repolarization of M2 like macrophage into M1 phenotype in female C57BL/6 mouse BMDM cells assessed as increase in number of M1 macrophages by measuring increase in Nos2 expression at 10 to 100 nM stimulated with mouse IL4/IL-13 for 24 hrs followed by compound addition and measured after 24 hrs by immunofluorescence analysis; format: functional, cell-based; settings: dose 10-100 nM
[14] = Tmax in Sprague-Dawley rat at 10 mg/kg, po; format: ADME, organism-based; settings: in vivo
[15] = system: MC-38; assay: Inhibition of cell viability in mouse MC38 cells at 10 to 100 nM by MTT assay; format: functional, cell-based; settings: dose 10-100 nM
[16] = MRT (0 to t) in Sprague-Dawley rat at 1 mg/kg, iv; format: ADME, organism-based; settings: in vivo
[17] = system: MC-38; assay: Induction of apoptosis in mouse MC38 cells cocultured with condition medium of M2 macrophages assessed as late apoptotic cells at 30 nM by Annexin V/PI staining based flow cytometric analysis (reference value: 1.66 %); format: functional
[18] = AUC (0 to t) in Sprague-Dawley rat at 1 mg/kg, iv; format: ADME, organism-based; settings: in vivo
[19] = system: MC-38; assay: Induction of apoptosis in mouse MC38 cells assessed as late apoptotic cells at 30 nM by Annexin V/PI staining based flow cytometric analysis (reference value: 0.85 %); format: functional
[20] = system: MC-38; assay: Antitumor activity against mouse MC38 cells allografted in C57BL/6 mouse model assessed as reduction in tumor weight at 20 mg/kg, ip administered once daily for 14 days relative to control; format: functional; set-up: scale not given: the % may be the effect or the level left; settings: time 14 day
[21] = molecular target: T2, Macrophage colony-stimulating factor 1 receptor (Homo sapiens, UniProt P07333); assay: Binding affinity to recombinant CSF-1R (unknown origin) assessed as equilibrium dissociation constant by SPR analysis
[22] = system: MC-38; assay: Inhibition of cell viability in mouse MC38 cells cocultured with condition medium of M2 macrophages at 10 to 100 nM by MTT assay; format: functional, cell-based; settings: dose 10-100 nM
[23] = molecular target: NT-3 growth factor receptor (Homo sapiens) (UniProt Q16288); assay: Inhibition of TRKC (unknown origin) at 1 uM
[24] = system: MC-38; assay: Induction of apoptosis in mouse MC38 cells assessed as late apoptotic cells at 10 nM by Annexin V/PI staining based flow cytometric analysis (reference value: 0.85 %); format: functional
[25] = molecular target: T2, Macrophage colony-stimulating factor 1 receptor; assay: Inhibition of CSF-1R (unknown origin)

T2 sequence (P07333 whole entry): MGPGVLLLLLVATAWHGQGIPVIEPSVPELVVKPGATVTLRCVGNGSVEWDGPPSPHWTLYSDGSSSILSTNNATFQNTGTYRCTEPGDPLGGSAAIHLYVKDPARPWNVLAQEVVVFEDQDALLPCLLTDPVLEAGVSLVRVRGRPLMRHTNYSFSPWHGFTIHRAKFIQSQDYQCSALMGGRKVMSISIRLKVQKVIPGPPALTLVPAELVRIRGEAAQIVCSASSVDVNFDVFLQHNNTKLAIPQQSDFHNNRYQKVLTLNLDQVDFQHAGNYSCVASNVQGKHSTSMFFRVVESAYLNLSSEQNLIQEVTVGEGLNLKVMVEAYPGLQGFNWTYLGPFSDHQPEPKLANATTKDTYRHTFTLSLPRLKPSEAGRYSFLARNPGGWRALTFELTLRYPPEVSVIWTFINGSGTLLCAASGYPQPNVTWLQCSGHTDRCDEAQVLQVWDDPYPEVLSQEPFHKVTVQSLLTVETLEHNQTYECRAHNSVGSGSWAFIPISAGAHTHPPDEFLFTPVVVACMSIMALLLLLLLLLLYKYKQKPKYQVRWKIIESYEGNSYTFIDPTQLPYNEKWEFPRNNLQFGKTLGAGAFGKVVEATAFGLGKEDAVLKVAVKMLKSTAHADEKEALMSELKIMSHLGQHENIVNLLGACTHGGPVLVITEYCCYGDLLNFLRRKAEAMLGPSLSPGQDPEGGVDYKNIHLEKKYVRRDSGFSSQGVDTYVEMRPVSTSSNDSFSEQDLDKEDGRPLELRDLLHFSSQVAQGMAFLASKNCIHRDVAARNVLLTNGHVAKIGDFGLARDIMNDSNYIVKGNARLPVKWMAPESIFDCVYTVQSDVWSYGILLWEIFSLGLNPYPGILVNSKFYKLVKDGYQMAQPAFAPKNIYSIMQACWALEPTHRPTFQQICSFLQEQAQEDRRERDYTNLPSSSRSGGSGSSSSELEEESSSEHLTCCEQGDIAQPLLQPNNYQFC
NT-3 growth factor receptor (Homo sapiens), sequence (Q16288 32-839 limits assumed): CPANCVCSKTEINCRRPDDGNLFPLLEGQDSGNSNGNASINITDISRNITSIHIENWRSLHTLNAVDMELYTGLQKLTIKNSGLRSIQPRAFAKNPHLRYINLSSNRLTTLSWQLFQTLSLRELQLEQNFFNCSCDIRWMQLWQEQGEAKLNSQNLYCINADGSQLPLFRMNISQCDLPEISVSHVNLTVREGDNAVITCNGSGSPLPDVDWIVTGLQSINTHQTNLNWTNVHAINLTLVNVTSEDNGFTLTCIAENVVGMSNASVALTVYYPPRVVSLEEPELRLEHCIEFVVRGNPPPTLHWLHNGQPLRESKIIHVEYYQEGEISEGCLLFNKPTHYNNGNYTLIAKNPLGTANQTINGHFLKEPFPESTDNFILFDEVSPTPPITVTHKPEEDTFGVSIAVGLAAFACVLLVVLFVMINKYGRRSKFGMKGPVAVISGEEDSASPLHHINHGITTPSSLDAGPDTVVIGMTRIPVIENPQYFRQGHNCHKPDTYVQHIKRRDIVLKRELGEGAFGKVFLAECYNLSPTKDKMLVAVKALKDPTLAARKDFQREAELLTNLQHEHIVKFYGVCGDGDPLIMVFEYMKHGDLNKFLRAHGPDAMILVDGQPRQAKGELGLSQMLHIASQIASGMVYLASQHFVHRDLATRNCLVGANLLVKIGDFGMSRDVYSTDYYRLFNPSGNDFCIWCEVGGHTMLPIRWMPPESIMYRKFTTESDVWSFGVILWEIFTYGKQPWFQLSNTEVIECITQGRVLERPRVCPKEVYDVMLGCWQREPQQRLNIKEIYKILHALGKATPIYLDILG

In the case of `Cc1nc(NC(=O)N[C@@H]2CCCC[C@H]2O)ccc1Oc1c[nH]c2ncc(Cl)cc12`, the Activity [1] is reported as “Active”, the clearance [2] is reported as 31.9 mL/min/kg and the Activity [3] is reported as “Non-toxic”. The Activity [4] was “Active”, the inhibition [5] was “Dose-dependent-effect” and the Activity [6] was “Active”. For the same compound, the half-life [7] was 1.2 h, the Activity [8] was “Active” and the inhibition [9] was “Active”. The inhibition [10] was “Dose-dependent-effect”, the Activity [11] was 2.03% and the Activity [12] was “Active”. For the same compound, the Activity [13] was “Active”, the Tmax [14] was 1.13 h and the inhibition [15] was “Minimal_effect”. For the same compound, the MRT last [16] was 1.6 h, the Activity [17] was 4.88% and the AUC(0-t) [18] was 526 ng·h/mL. It also gave an Activity [19] of 0.87%, an Activity [20] of 56% and a Kd [21] of 2.96 nM. The inhibition [22] was “Active”, the inhibition [23] was “Active” and the Activity [24] was 0.72%. It also gave an IC50 [25] of 20.1 nM.
